According to article PMC10221074, “Functional Profiling of the A-Family of Venom Peptides from the Wolf Spider Lycosa shansia” (Toxins, 2023):

Assays:
[1] = system: Escherichia coli BL21(DE3); experiment: Antibacterial growth assay (OD600); conditions: for Bacterial growth relative to medium, E. coli, replicate 1 / Bacterial growth relative to medium, E. coli, replicate 2 / Bacterial growth relative to medium, E. coli, replicate 3: OD600, medium = 100, MH II broth, 37 °C, peptide 200 µM mixed 50 µL + 50 µL with bacteria, Figure 7: 48 h; for Bacterial growth relative to medium, E. coli, replicate 1: replicate column 1; for Bacterial growth relative to medium, E. coli, replicate 2: replicate column 2; for Bacterial growth relative to medium, E. coli, replicate 3: replicate column 3; for Antibacterial activity (in words): E. coli BL21(DE3), growth after 48 h
Procedure: (§1) Cryo-conserved cultures of selected bacterial strains (Table 4) were transferred to Tryptic Soy Agar (TSA) plates (Carl Roth) with a sterile inoculation loop, sealed with Parafilm (BEMIS, Neenah, WI, USA), and incubated for 1–2 days at 37 °C depending on growth. Single colonies were picked and transferred into 2–3 mL of the Mueller–Hinton II (MH II) broth (BD, Heidelberg, Germany). The bacteria were cultivated overnight, subcultured on fresh medium and grown for 3–4 h before testing at 37 °C, with shaking at 180 rpm. We measured the optical density at 600 nm (OD600) of 1 mL of the bacterial suspensions in polystyrene cuvettes (SARSTED, Nümbrecht, Germany) using an Ultrospec 10 spectrophotometer (Biochrome, Cambridge, UK). We then diluted them with the MH II medium to the preferred OD600 (Table 2). The peptides were dissolved in DMSO to generate 10 mmol/L stocks and diluted with the MH II medium to 200 µM before the assay. We used 10 µg/mL (~40 µg/mL for S. epidermidis) gentamicin and colistin (Sigma-Aldrich, Taufkirchen, Germany), DMSO and the medium only as controls. The bacteria were transferred to 96-multiwell plates with a final volume of 100 µL per well (50 µL bacterial suspension, and 50 µL test peptide). The OD600 was measured at 0, 24 and 48 h using a BioTek Eon microplate reader followed by analysis with Gen5 v2.09.

[2] = system: Pseudomonas aeruginosa DSM 1117; experiment: Antibacterial growth assay (OD600); conditions: for Bacterial growth relative to medium, P. aeruginosa (1117), replicate 1 / Bacterial growth relative to medium, P. aeruginosa (1117), replicate 2 / Bacterial growth relative to medium, P. aeruginosa (1117), replicate 3: OD600, medium = 100, MH II broth, 37 °C, peptide 200 µM mixed 50 µL + 50 µL with bacteria, Figure 7: 48 h; for Bacterial growth relative to medium, P. aeruginosa (1117), replicate 1: replicate column 1; for Bacterial growth relative to medium, P. aeruginosa (1117), replicate 2: replicate column 2; for Bacterial growth relative to medium, P. aeruginosa (1117), replicate 3: replicate column 3
[3] = system: Staphylococcus aureus DSM 2569; experiment: Antibacterial growth assay (OD600); conditions: for Bacterial growth relative to medium, S. aureus, replicate 1 / Bacterial growth relative to medium, S. aureus, replicate 2 / Bacterial growth relative to medium, S. aureus, replicate 3: OD600, medium = 100, MH II broth, 37 °C, peptide 200 µM mixed 50 µL + 50 µL with bacteria, Figure 7: 48 h; for Bacterial growth relative to medium, S. aureus, replicate 1: replicate column 1; for Bacterial growth relative to medium, S. aureus, replicate 2: replicate column 2; for Bacterial growth relative to medium, S. aureus, replicate 3: replicate column 3; for Antibacterial activity (in words): S. aureus DSM 2569, growth after 48 h
[4] = system: panel of seven bacterial strains; experiment: Antibacterial growth assay (OD600), statements on the whole panel; format: cell-based; conditions: growth after 48 h
[5] = system: Micrococcus luteus DSM 20030; experiment: Antibacterial growth assay (OD600); conditions: for Antibacterial activity (in words): M. luteus DSM 20030, growth after 48 h; for Bacterial growth relative to medium, M. luteus, replicate 1 / Bacterial growth relative to medium, M. luteus, replicate 2 / Bacterial growth relative to medium, M. luteus, replicate 3: OD600, medium = 100, MH II broth, 37 °C, peptide 200 µM mixed 50 µL + 50 µL with bacteria, Figure 7: 48 h; for Bacterial growth relative to medium, M. luteus, replicate 1: replicate column 1; for Bacterial growth relative to medium, M. luteus, replicate 2: replicate column 2; for Bacterial growth relative to medium, M. luteus, replicate 3: replicate column 3
Procedure: as §1

[6] = system: B/Malaysia/2506/2004 (B-Mal); format: cell-based, influenza virus
[7] = system: Pseudomonas aeruginosa DSM 50071; experiment: Antibacterial growth assay (OD600); conditions: OD600, medium = 100, MH II broth, 37 °C, peptide 200 µM mixed 50 µL + 50 µL with bacteria, Figure 7: 48 h; for Bacterial growth relative to medium, P. aeruginosa (50071), replicate 1: replicate column 1; for Bacterial growth relative to medium, P. aeruginosa (50071), replicate 2: replicate column 2; for Bacterial growth relative to medium, P. aeruginosa (50071), replicate 3: replicate column 3
Procedure: as §1

[8] = system: Listeria monocytogenes DSM 20600; experiment: Antibacterial growth assay (OD600); conditions: for Bacterial growth relative to medium, L. monocytogenes, replicate 1 / Bacterial growth relative to medium, L. monocytogenes, replicate 2 / Bacterial growth relative to medium, L. monocytogenes, replicate 3: OD600, medium = 100, MH II broth, 37 °C, peptide 200 µM mixed 50 µL + 50 µL with bacteria, Figure 7: 48 h; for Bacterial growth relative to medium, L. monocytogenes, replicate 1: replicate column 1; for Bacterial growth relative to medium, L. monocytogenes, replicate 2: replicate column 2; for Bacterial growth relative to medium, L. monocytogenes, replicate 3: replicate column 3; for Antibacterial activity (in words): L. monocytogenes DSM 20600, growth after 48 h
A/Hessen/1/2003 (H3N2) = format: cell-based, influenza virus
[9] = system: Staphylococcus epidermidis DSM 28319; experiment: Antibacterial growth assay (OD600); conditions: for Bacterial growth relative to medium, S. epidermidis, replicate 1 / Bacterial growth relative to medium, S. epidermidis, replicate 2 / Bacterial growth relative to medium, S. epidermidis, replicate 3: OD600, medium = 100, MH II broth, 37 °C, peptide 200 µM mixed 50 µL + 50 µL with bacteria, Figure 7: 48 h; for Bacterial growth relative to medium, S. epidermidis, replicate 1: replicate column 1; for Bacterial growth relative to medium, S. epidermidis, replicate 2: replicate column 2; for Bacterial growth relative to medium, S. epidermidis, replicate 3: replicate column 3; for Antibacterial activity (in words): S. epidermidis DSM 28319, growth after 48 h
A/Hamburg/05/2009 (H1N1) = format: cell-based, influenza virus
[10] = […], replicate 4 (additional internal control)
[11] = […], replicate 5 (additional internal control)

Row | Sequence | Bacterial growth relative to medium, E. coli, replicate 1 [1] | Bacterial growth relative to medium, E. coli, replicate 2 [1] | Bacterial growth relative to medium, E. coli, replicate 3 [1] | Bacterial growth relative to medium, P. aeruginosa (1117), replicate 1 [2] | Bacterial growth relative to medium, P. aeruginosa (1117), replicate 2 [2] | Bacterial growth relative to medium, P. aeruginosa (1117), replicate 3 [2] | Bacterial growth relative to medium, S. aureus, replicate 1 [3] | Bacterial growth relative to medium, S. aureus, replicate 2 [3] | Bacterial growth relative to medium, S. aureus, replicate 3 [3] | Antibacterial activity over the panel (in words) [4] | Bacterial growth relative to medium, M. luteus, replicate 1 [5] | Bacterial growth relative to medium, M. luteus, replicate 2 [5] | Bacterial growth relative to medium, M. luteus, replicate 3 [5] | Viability of infected cells relative to aprotinin, Replicate 1 [6] | Viability of infected cells relative to aprotinin, Replicate 2 [6] | Viability of infected cells relative to aprotinin, Replicate 3 [6] | Bacterial growth relative to medium, P. aeruginosa (50071), replicate 1 [7] | Bacterial growth relative to medium, P. aeruginosa (50071), replicate 2 [7] | Bacterial growth relative to medium, P. aeruginosa (50071), replicate 3 [7] | Bacterial growth relative to medium, L. monocytogenes, replicate 1 [8] | also measured
1 | SLLGLLDVVKNKVGQI [LS-AMP-A5] | 99.4801 | 69.6408 | 26.4544 | 63.186 | 51.5489 | 62.0721 | 55.1989 | 62.917 | 88.627 | inhibited the growth of most of the bacteria except two | 73.1884 | 97.1848 | 36.1549 | 0.1132 | 0.06127 | 0.06301 | 93.2773 | 109.79 | 85.8852 | 122.608 | Antibacterial activity (in words) [5]: no activity; Bacterial growth relative to medium, L. monocytogenes, replicate 2 [8]: 80.283; Bacterial growth relative to medium, L. monocytogenes, replicate 3 [8]: 61.98; Viability of infected cells relative to aprotinin, Replicate 1 (A/Hessen/1/2003 (H3N2)): 0.17; Viability of infected cells relative to aprotinin, Replicate 2 (A/Hessen/1/2003 (H3N2)): 0.06482; Viability of infected cells relative to aprotinin, Replicate 3 (A/Hessen/1/2003 (H3N2)): 0.08289; Viability of infected cells relative to aprotinin, Replicate 4 (A/Hessen/1/2003 (H3N2); [10]): 0.1822; Viability of infected cells relative to aprotinin, Replicate 5 (A/Hessen/1/2003 (H3N2); [11]): 0.1791; Viability of infected cells relative to aprotinin, Replicate 6 (A/Hessen/1/2003 (H3N2); […], replicate 6 (additional internal control)): 0.1761; Bacterial growth relative to medium, S. epidermidis, replicate 1 [9]: 62.884; Bacterial growth relative to medium, S. epidermidis, replicate 2 [9]: 53.6633; Bacterial growth relative to medium, S. epidermidis, replicate 3 [9]: 71.8202; Viability of infected cells relative to aprotinin, Replicate 1 (A/Hamburg/05/2009 (H1N1)): 0.0613; Viability of infected cells relative to aprotinin, Replicate 2 (A/Hamburg/05/2009 (H1N1)): 0.03494; Viability of infected cells relative to aprotinin, Replicate 3 (A/Hamburg/05/2009 (H1N1)): 0.03984
2 | SLLGLLDVVKNKVGQIG [LS-AMP-A4] | 63.5471 | 64.6002 | 38.7121 | 67.901 | 83.7452 | 58.9242 | 64.8588 | 69.2609 | 80.5088 | inhibited the growth of most of the bacteria except two | 48.8727 | 93.5811 | 47.3458 | 0.05108 | 0.07356 | 0.0764 | 97.6103 | 110.944 | 86.4168 | 47.529 | Antibacterial activity (in words) [1]: able to decrease the growth; Antibacterial activity (in words) [3]: able to decrease the growth; Antibacterial activity (in words) [5]: able to decrease the growth; Antibacterial activity (in words) [8]: able to decrease the growth; Bacterial growth relative to medium, L. monocytogenes, replicate 2 [8]: 64.3679; Bacterial growth relative to medium, L. monocytogenes, replicate 3 [8]: 81.7792; Viability of infected cells relative to aprotinin, Replicate 1 (A/Hessen/1/2003 (H3N2)): 0.1134; Viability of infected cells relative to aprotinin, Replicate 2 (A/Hessen/1/2003 (H3N2)): 0.06953; Viability of infected cells relative to aprotinin, Replicate 3 (A/Hessen/1/2003 (H3N2)): 0.04762; Bacterial growth relative to medium, S. epidermidis, replicate 1 [9]: 50.7409; Bacterial growth relative to medium, S. epidermidis, replicate 2 [9]: 49.8658; Bacterial growth relative to medium, S. epidermidis, replicate 3 [9]: 70.1306; Antibacterial activity (in words) [9]: able to decrease the growth; Viability of infected cells relative to aprotinin, Replicate 1 (A/Hamburg/05/2009 (H1N1)): 0.03111; Viability of infected cells relative to aprotinin, Replicate 2 (A/Hamburg/05/2009 (H1N1)): 0.02825; Viability of infected cells relative to aprotinin, Replicate 3 (A/Hamburg/05/2009 (H1N1)): 0.01475
3 | SLLGLLDVVKNKVGQIGLL [LS-AMP-A3] | 114.847 | 118.887 | 89.3889 | 63.3724 | 74.5214 | 66.198 | 77.3106 | 83.4859 | 97.1568 | limited activity | 106.28 | 132.545 | 67.7188 | 0.05676 | 0.05168 | 0.08362 | 100.315 | 112.866 | 88.8092 | 59.9369 | Antibacterial activity (in words) ([2]; P. aeruginosa DSM 1117, growth after 48 h): less effective; Antibacterial activity (in words) [8]: less effective; Bacterial growth relative to medium, L. monocytogenes, replicate 2 [8]: 117.418; Bacterial growth relative to medium, L. monocytogenes, replicate 3 [8]: 68.2929; Viability of infected cells relative to aprotinin, Replicate 1 (A/Hessen/1/2003 (H3N2)): 0.1081; Viability of infected cells relative to aprotinin, Replicate 2 (A/Hessen/1/2003 (H3N2)): 0.01008; Viability of infected cells relative to aprotinin, Replicate 3 (A/Hessen/1/2003 (H3N2)): 0.02318; Bacterial growth relative to medium, S. epidermidis, replicate 1 [9]: 125.081; Bacterial growth relative to medium, S. epidermidis, replicate 2 [9]: 166.552; Bacterial growth relative to medium, S. epidermidis, replicate 3 [9]: 95.4096; Viability of infected cells relative to aprotinin, Replicate 1 (A/Hamburg/05/2009 (H1N1)): 0.0465; Viability of infected cells relative to aprotinin, Replicate 2 (A/Hamburg/05/2009 (H1N1)): 0.03476; Viability of infected cells relative to aprotinin, Replicate 3 (A/Hamburg/05/2009 (H1N1)): 0.04494
4 | SLLGLLDVVKNTVGQ [LS-AMP-A11] | 64.587 | 63.905 | 36.8825 | 82.0725 | 95.9276 | 84.5049 | 50.8023 | 58.8947 | 79.7231 | inhibited the growth of most of the bacteria except two | 56.0386 | 92.3422 | 31.1812 | 0.04707 | 0.04802 | 0.0552 | 97.4528 | 114.818 | 88.0117 | 57.2028 | Antibacterial activity (in words) [1]: able to decrease the growth; Antibacterial activity (in words) [3]: able to decrease the growth; Antibacterial activity (in words) [5]: able to decrease the growth; Antibacterial activity (in words) [8]: able to decrease the growth; Bacterial growth relative to medium, L. monocytogenes, replicate 2 [8]: 67.6393; Bacterial growth relative to medium, L. monocytogenes, replicate 3 [8]: 84.2183; Viability of infected cells relative to aprotinin, Replicate 1 (A/Hessen/1/2003 (H3N2)): 0.1919; Viability of infected cells relative to aprotinin, Replicate 2 (A/Hessen/1/2003 (H3N2)): 0.09823; Viability of infected cells relative to aprotinin, Replicate 3 (A/Hessen/1/2003 (H3N2)): 0.08306; Bacterial growth relative to medium, S. epidermidis, replicate 1 [9]: 49.2953; Bacterial growth relative to medium, S. epidermidis, replicate 2 [9]: 44.2655; Bacterial growth relative to medium, S. epidermidis, replicate 3 [9]: 33.4715; Antibacterial activity (in words) [9]: able to decrease the growth; Viability of infected cells relative to aprotinin, Replicate 1 (A/Hamburg/05/2009 (H1N1)): 0.05004; Viability of infected cells relative to aprotinin, Replicate 2 (A/Hamburg/05/2009 (H1N1)): 0.04235; Viability of infected cells relative to aprotinin, Replicate 3 (A/Hamburg/05/2009 (H1N1)): 0.04417; Viability of infected cells relative to aprotinin, Replicate 4 (A/Hamburg/05/2009 (H1N1); [10]): 0.03789; Viability of infected cells relative to aprotinin, Replicate 5 (A/Hamburg/05/2009 (H1N1); [11]): 0.01667
